pEC50: −log10 of the molar value.
Assays:
[1] = tested on: patients with primary aldosteronism; settings: oral; cited from earlier work
[2] = tested on: rat model of chronic kidney disease; settings: rat CKD model, cited from earlier work; for renal effects (albuminuria, azotemia, renovascular hypertrophy, glomerular injury, PAI-1 and osteopontin mRNA, tubulointerstitial fibrosis): angiotensin II and high salt
[3] = tested on: rats with experimental heart failure; settings: cited from earlier work
[4] = target: T1, human CYP11B1 (Homo sapiens, UniProt P15538); assay: G-402 cellular enzyme assay, human CYP11B1 (cortisol release, HTRF); type: cell-based; settings: G-402 cells expressing human CYP11B1; 1 μM Deoxycortisol; 16 h
T1 construct: expressed in transfected cells
T1 sequence (P15538 25-503): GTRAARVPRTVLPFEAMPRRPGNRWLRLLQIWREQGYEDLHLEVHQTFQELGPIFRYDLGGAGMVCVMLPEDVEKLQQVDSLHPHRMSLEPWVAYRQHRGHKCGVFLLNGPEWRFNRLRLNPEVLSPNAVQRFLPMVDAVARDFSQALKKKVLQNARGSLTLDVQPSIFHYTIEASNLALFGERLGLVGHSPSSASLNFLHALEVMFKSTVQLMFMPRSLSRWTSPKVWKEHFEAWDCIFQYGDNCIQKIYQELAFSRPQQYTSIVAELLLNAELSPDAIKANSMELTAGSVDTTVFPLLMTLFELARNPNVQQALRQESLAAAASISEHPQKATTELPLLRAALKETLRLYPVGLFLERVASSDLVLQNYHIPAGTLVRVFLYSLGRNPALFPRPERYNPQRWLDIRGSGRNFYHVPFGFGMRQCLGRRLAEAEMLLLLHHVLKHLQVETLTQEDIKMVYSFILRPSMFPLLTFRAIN
How it was run: (§1)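 G-402 cells stably expressing human CYP11B2 or CYP11B1, incubated 16 h with compound in DMEM/F12 with 2.5% charcoal-treated FCS plus 1 μM deoxycorticosterone (CYP11B2) or 1 μM deoxycortisol (CYP11B1). Aldosterone or cortisol in supernatant measured by HTRF; EC50 from 4-parameter MMF fit.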

[5] = target: T2, human CYP11B2 (Homo sapiens, UniProt P19099); assay: G-402 cellular enzyme assay, human CYP11B2 (aldosterone release, HTRF); type: cell-based; settings: G-402 cells expressing human CYP11B2; 1 μM Deoxycorticosterone; 16 h
T2 construct: expressed in transfected cells
T2 sequence (P19099 25-503): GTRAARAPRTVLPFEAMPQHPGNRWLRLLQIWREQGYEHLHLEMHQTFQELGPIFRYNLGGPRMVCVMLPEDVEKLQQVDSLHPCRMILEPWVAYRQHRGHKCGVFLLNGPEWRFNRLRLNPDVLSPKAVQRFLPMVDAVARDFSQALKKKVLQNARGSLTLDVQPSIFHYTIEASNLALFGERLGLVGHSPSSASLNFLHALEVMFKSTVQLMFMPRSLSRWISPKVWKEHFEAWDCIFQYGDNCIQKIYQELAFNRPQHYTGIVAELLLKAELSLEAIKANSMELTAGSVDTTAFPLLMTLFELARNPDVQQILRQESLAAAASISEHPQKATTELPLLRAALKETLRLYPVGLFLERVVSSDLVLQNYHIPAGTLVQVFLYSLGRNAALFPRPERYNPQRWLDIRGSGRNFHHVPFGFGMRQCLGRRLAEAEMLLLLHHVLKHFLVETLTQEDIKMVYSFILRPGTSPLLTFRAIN
How it was run: as §1

Q: For `N#Cc1ccc([C@H]2CCc3cncn32)c(F)c1` [LCI699], which blood pressure [1] is on record?
A: The blood pressure was “mildly decreased”.

Q: What about the circulating aldosterone levels [1] of the same compound?
A: The circulating aldosterone levels was “significantly lower”.

Q: And the hypokalemia [1]?
A: The hypokalemia was “corrected”.

Q: With `N#Cc1ccc(C2CCCc3cncn32)cc1` (stereo not shown) [FAD286] as the compound, how does the plasma aldosterone ([2]; 4 weeks of treatment) read?
A: Its plasma aldosterone is “reduced”.

Q: And the “renal effects (albuminuria, azotemia, renovascular hypertrophy, glomerular injury, PAI-1 and osteopontin mRNA, tubulointerstitial fibrosis)” value [2]?
A: Its value is “prevented”.

Q: What about the “angiotensin II and salt-stimulated PAI-1 mRNA expression in the aorta and the heart” value [2] of the same compound?
A: Its value is “not”.

Q: And the “cardiac and aortic medial hypertrophy” value [2]?
A: Its value is “attenuated”.

Q: What about the “blood pressure and cardiovascular function and structure” value [3] of the same compound?
A: Its value is “improved”.

Q: What about the “kidney function and morphology” value [3] of the same compound?
A: Its value is “improve”.

Q: Which “renal effects (albuminuria, azotemia, renovascular hypertrophy, glomerular injury, PAI-1 and osteopontin mRNA, tubulointerstitial fibrosis)” value [2] does the source give for `CC(=O)S[C@@H]1CC2=CC(=O)CC[C@]2(C)[C@H]2CC[C@@]3(C)[C@@H](CC[C@@]34CCC(=O)O4)[C@H]12` [spironolactone] here?
A: Its value is “prevented”.

Q: What about the aldosterone ([2]; at 4 and 8 weeks of treatment) of the same compound?
A: The aldosterone was “increased”.

Q: What about the “angiotensin II and salt-stimulated PAI-1 mRNA expression in the aorta and the heart” value [2] of the same compound?
A: The value was “enhanced”.

Q: What about the “cardiac and aortic medial hypertrophy” value [2] of the same compound?
A: Its value is “attenuated”.

Q: With `CCC(CC)n1cncc1C(=O)c1ccc(SC(F)(F)F)cc1` [Example 76, [3-(1-Ethyl-propyl)-3H-imidazol-4-yl]-(4-trifluoromethylsulfanyl-phenyl)-methanone] as the compound, how does the pEC50 [4] read?
A: Its pEC50 is 6.58.

Q: What about the pEC50 [5] of the same compound?
A: Its pEC50 is 7.37.

Q: With `COc1cc(C(=O)c2cncn2C2CC2)ccc1SC` [Example 62, (3-Cyclopropyl-3H-imidazol-4-yl)-(3-methoxy-4-methylsulfanyl-phenyl)-methanone] as the compound, how does the pEC50 [4] read?
A: The pEC50 was 7.34.

Q: And the pEC50 [5]?
A: Its pEC50 is 8.55.

Q: With `O=C(c1ccc(Cl)cc1)c1cncn1C1CC1` [Example 19, (4-Chloro-phenyl)-(3-cyclopropyl-3H-imidazol-4-yl)-methanone] as the compound, how does the pEC50 [4] read?
A: The pEC50 was 7.28.

Q: What about the pEC50 [5] of the same compound?
A: The pEC50 was 8.21.

Q: With `CCn1cncc1C(=O)c1cccc(C#N)c1` [Example 56, 3-(3-Ethyl-3H-imidazole-4-carbonyl)-benzonitrile] as the compound, how does the pEC50 [4] read?
A: The pEC50 was 5.92.

Q: What about the pEC50 [5] of the same compound?
A: Its pEC50 is 6.96.

Q: What does the source list for `CCn1cncc1C(=O)c1ccc2c(c1)CCC(=O)N2C` [Example 26, 6-(3-Ethyl-3H-imidazole-4-carbonyl)-1-methyl-3,4-dihydro-1H-quinolin-2-one]?
A: pEC50 [4]: 5.95; pEC50 [5]: 7.71

Q: What does the source list for `CCn1cncc1C(=O)c1ccc(Cl)c(Cl)c1` [Example 15, (3,4-Dichloro-phenyl)-(3-ethyl-3H-imidazol-4-yl)-methanone]?
A: pEC50 [4]: 7.70; pEC50 [5]: 8.74

Q: With `Cn1cncc1C(=O)c1ccc(Cl)c(Cl)c1` [Example 3, (3,4-Dichloro-phenyl)-(3-methyl-3H-imidazol-4-yl)-methanone] as the compound, how does the pEC50 [4] read?
A: Its pEC50 is 6.78.

Q: What about the pEC50 [5] of the same compound?
A: The pEC50 was 8.31.

Q: With `CC(C)n1cncc1C(=O)c1ccc(F)c(Cl)c1` [Example 38, (3-Chloro-4-fluoro-phenyl)-(3-isopropyl-3H-imidazol-4-yl)-methanone] as the compound, how does the pEC50 [4] read?
A: The pEC50 was 8.41.

Q: What about the pEC50 [5] of the same compound?
A: The pEC50 was 8.41.

Q: What does the source list for `N#Cc1ccc(C(=O)c2cncn2CC(F)(F)F)cc1` [Example 20, 4-[3-(2,2,2-Trifluoro-ethyl)-3H-imidazole-4-carbonyl]-benzonitrile]?
A: pEC50 [4]: 6.72; pEC50 [5]: 7.63

Q: Which results are given for `CC(C)n1cncc1C(=O)c1ccc(SC(F)(F)F)cc1` [Example 75, (3-Isopropyl-3H-imidazol-4-yl)-(4-trifluoromethylsulfanyl-phenyl)-methanone]?
A: pEC50 [4]: 6.12; pEC50 [5]: 7.05

Q: With `CNc1ccc(C(=O)c2cncn2C)cc1` [Example 86, (4-Methylamino-phenyl)-(3-methyl-3H-imidazol-4-yl)-methanone] as the compound, how does the pEC50 [4] read?
A: Its pEC50 is 5.43.

Q: And the pEC50 [5]?
A: The pEC50 was 5.79.

Q: With `Cn1cncc1C(=O)c1ccc(F)c(Cl)c1` [Example 32, (3-Chloro-4-fluoro-phenyl)-(3-methyl-3H-imidazol-4-yl)-methanone] as the compound, how does the pEC50 [4] read?
A: Its pEC50 is 6.52.

Q: And the pEC50 [5]?
A: Its pEC50 is 7.93.

From patent publication US9464058B2 (Hoffmann-La Roche Inc., priority 2012, dated 2016)
